{"source": "patent US9518078B2", "about": "“Disaccharide synthetic lipid compounds and uses thereof” (AVANTI POLAR LIPIDS, INC., priority 2012, dated 2016)", "key": {"[1]": {"test_system": "murine parental cell line (mTLR)", "assay": "Negative control: murine parental HEK-293 cell line transfected only with the reporter gene", "type": "cell-based, mouse", "conditions": "parental HEK-293, 18 h", "description": "(§1) HEK-293 cell lines engineered to functionally over-express human or murine TLR-4 receptor were utilized in the experiments below. These cells also contain a reporter gene (a secreted alkaline phosphatase) under the control of a NFκB inducible promoter. TLR-4 activation results are given as optical density (OD) values after 18 hours stimulation of the designated HEK-293 cell lines.\n(§2) Samples and controls are tested in duplicate on recombinant HEK-293 cell lines. The negative controls for the assay were the parental HEK-293 cell lines transfected only with the reporter gene. Negative control cells were stimulated with TNF-α, an inducer of NFκB activity. The positive controls for the assay were HEK-293 cells transfected with human TLR-4 (hTLR-4) or mouse TLR-4 (mTLR-4) along with the reporter construct and activated with LPS 0111 (obtained from E. coli 0111:B4 strain) from 100 ng/ml to 0.01 ng/ml or with LPS K12 (obtained from E. coli K12 strain) from 100 ng/ml to 0.01 ng/ml.\n(§3) Another synthetic disaccharide lipid compound used in this assay in an independent experiment was the compound of the structure X (referred to herein as MPLA-D). […] Test compounds were used at the following concentrations: 5.71 μM/570 nM/171 nM/57 nM/17 nM/5.7 nM/well to stimulate in duplicate mTLR4 expressing cell lines.\nas §3, with “experiment,” for “experiment”, “XV” for “X”, “MPLA-C).” for “MPLA-D).”, “5.7” for “5.71”, “duplicate hTLR4 and” for “duplicate”"}, "human TLR-4 receptor": {"biological_target": "T1, human TLR-4 receptor (Homo sapiens, UniProt O00206+Q9Y6Y9)", "T1 construct": "expressed in transfected cells; host or cells: HEK-293", "T1 sequence (O00206 24-839)": "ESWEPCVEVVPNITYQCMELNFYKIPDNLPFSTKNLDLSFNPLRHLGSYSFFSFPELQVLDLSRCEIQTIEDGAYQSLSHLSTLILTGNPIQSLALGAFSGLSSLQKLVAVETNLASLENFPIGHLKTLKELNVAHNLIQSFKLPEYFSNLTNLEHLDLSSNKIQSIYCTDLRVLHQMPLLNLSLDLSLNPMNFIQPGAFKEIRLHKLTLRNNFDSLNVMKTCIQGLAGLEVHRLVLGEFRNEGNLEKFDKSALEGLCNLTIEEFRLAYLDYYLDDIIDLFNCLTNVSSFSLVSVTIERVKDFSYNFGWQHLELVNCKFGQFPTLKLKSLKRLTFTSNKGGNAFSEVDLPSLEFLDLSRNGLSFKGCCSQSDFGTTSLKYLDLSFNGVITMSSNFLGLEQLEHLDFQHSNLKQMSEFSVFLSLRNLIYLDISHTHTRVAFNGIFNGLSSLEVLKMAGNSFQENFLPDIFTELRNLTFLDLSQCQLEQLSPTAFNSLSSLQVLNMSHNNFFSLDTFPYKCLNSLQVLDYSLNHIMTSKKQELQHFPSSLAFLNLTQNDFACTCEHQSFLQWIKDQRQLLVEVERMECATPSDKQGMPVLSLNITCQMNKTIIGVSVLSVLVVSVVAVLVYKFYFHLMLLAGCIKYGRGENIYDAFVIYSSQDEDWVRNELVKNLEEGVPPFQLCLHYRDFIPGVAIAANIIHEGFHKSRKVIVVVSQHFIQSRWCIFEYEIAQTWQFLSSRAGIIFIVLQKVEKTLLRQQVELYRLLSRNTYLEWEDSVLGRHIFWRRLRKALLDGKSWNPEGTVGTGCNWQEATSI", "T1 sequence (Q9Y6Y9 17-160 limits assumed)": "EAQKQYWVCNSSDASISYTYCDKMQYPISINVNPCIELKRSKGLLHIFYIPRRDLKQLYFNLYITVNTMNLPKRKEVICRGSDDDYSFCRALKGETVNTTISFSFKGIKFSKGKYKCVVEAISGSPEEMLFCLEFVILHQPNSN", "assay": "NFκB-inducible secreted alkaline phosphatase reporter in HEK-293 cells over-expressing human TLR-4", "type": "cell-based", "conditions": "hTLR-4 HEK-293, 18 h", "description": "as §1, §2\nas §3, with “experiment,” for “experiment”, “XV” for “X”, “MPLA-C).” for “MPLA-D).”, “5.7” for “5.71”, “duplicate hTLR4 and” for “duplicate”"}}, "note": "“And” between values parts separate entries of the source, which are not always exact repeats. Equal values may be shown once.", "data": [{"substance": "TNF-α", "values": [{"measurement": "NFκB reporter, optical density (OD), negative control cells", "setting": "[1]; 0.3 ng/ml", "value": "0.035 OD and 0.025 OD and 0.027 OD"}, {"measurement": "NFκB reporter, optical density (OD), negative control cells", "setting": "[1]; 3 ng/ml", "value": "0.033 OD and 0.027 OD and 0.024 OD"}, {"measurement": "NFκB reporter, optical density (OD), negative control cells", "setting": "[1]; 30 ng/ml", "value": "3.586 OD and 3.502 OD and 3.663 OD"}, {"measurement": "TLR-4 activation, optical density (OD)", "setting": "human TLR-4 receptor; 0.1 ng/ml", "value": 0.275, "unit": "OD"}, {"measurement": "TLR-4 activation, optical density (OD)", "setting": "human TLR-4 receptor; 0.3 ng/ml", "value": 0.577, "unit": "OD"}, {"measurement": "TLR-4 activation, optical density (OD)", "setting": "human TLR-4 receptor; 1 ng/ml", "value": 0.899, "unit": "OD"}, {"measurement": "TLR-4 activation, optical density (OD)", "setting": "human TLR-4 receptor; 3 ng/ml", "value": 1.135, "unit": "OD"}, {"measurement": "TLR-4 activation, optical density (OD)", "setting": "human TLR-4 receptor; 10 ng/ml", "value": 1.262, "unit": "OD"}, {"measurement": "TLR-4 activation, optical density (OD)", "setting": "human TLR-4 receptor; 30 ng/ml", "value": 1.387, "unit": "OD"}]}]}
